Experimental data as given in the supplement of paper PMC10307832.

Key:
Experiment in all cases: relative viability (nuclei count vs DMSO), 5 days (fraction); higher = more cells survive
NCI-H596 = tested on: NCI-H596
Method in brief: (§1)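 After 5 days of treatment, lung cancer cells in 1536-well plates were fixed and stained in a single step (final 0.05% Triton X-100, 1% formaldehyde, 1 ug/ml Hoechst) and their nuclei counted on 4× images. Treatment had been applied by pin tool the day after seeding as one drug alone or as a fixed anchor-drug dose with five library-drug doses (not always all listed) in √10 steps. Relative viability is the nuclei count of treated wells divided by that of vehicle wells, and values are medians of duplicate plates.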

NCI-H2087 = tested on: NCI-H2087
Method in brief: as §1

NCI-H650 = tested on: NCI-H650
Method in brief: as §1

LCLC-97TM1 = tested on: LCLC-97TM1
Method in brief: as §1

NCI-H1651 = tested on: NCI-H1651
Method in brief: as §1

PC-3 [JPC-3] = tested on: PC-3 [JPC-3]
Method in brief: as §1

LC-2-ad = tested on: LC-2-ad
Method in brief: as §1

ChaGo-K-1 = tested on: ChaGo-K-1
Method in brief: as §1

LU99A = tested on: LU99A
Method in brief: as §1

LK-2 = tested on: LK-2
Method in brief: as §1

NCI-H2342 = tested on: NCI-H2342
Method in brief: as §1

NCI-H1944 = tested on: NCI-H1944
Method in brief: as §1

SK-MES-1 = tested on: SK-MES-1
Method in brief: as §1

HCC-78 = tested on: HCC-78
Method in brief: as §1

BEN = tested on: BEN
Method in brief: as §1

NCI-H1355 = tested on: NCI-H1355
Method in brief: as §1

NCI-H661 = tested on: NCI-H661
Method in brief: as §1

NCI-H1666 = tested on: NCI-H1666
Method in brief: as §1

NCI-H838 = tested on: NCI-H838
Method in brief: as §1

LXF-289 = tested on: LXF-289
Method in brief: as §1

NCI-H1975 = tested on: NCI-H1975
Method in brief: as §1

NCI-H358 = tested on: NCI-H358
Method in brief: as §1

Question: Which results are given for `COc1nc(C)cnc1NS(=O)(=O)c1cccnc1-c1ccc(-c2nnco2)cc1` [Zibotentan] + Nc1nc2[nH]cc(CCc3ccc(C(=O)N[C@@H](CCC(=O)O)C(=O)O)cc3)c2c(=O)[nH]1 [Pemetrexed] (partner 0.2 µM)?
Answer: relative viability (NCI-H596; first compound 0.08 µM): 0.455; relative viability (NCI-H596; first compound 0.253 µM): 0.429; relative viability (NCI-H596; first compound 0.8 µM): 0.522; relative viability (NCI-H596; first compound 2.53 µM): 0.501; relative viability (NCI-H2087; first compound 0.08 µM): 0.677; relative viability (NCI-H2087; first compound 0.253 µM): 0.666; relative viability (NCI-H2087; first compound 0.8 µM): 0.536; relative viability (NCI-H2087; first compound 2.53 µM): 0.746; relative viability (NCI-H650; first compound 0.08 µM): 0.947; relative viability (NCI-H650; first compound 0.253 µM): 0.927; relative viability (NCI-H650; first compound 0.8 µM): 0.905; relative viability (NCI-H650; first compound 2.53 µM): 0.977; relative viability (LCLC-97TM1; first compound 0.08 µM): 0.192; relative viability (LCLC-97TM1; first compound 0.253 µM): 0.181; relative viability (LCLC-97TM1; first compound 0.8 µM): 0.154; relative viability (LCLC-97TM1; first compound 2.53 µM): 0.175; relative viability (NCI-H1651; first compound 0.08 µM): 0.594; relative viability (NCI-H1651; first compound 0.253 µM): 0.581; relative viability (NCI-H1651; first compound 0.8 µM): 0.578; relative viability (NCI-H1651; first compound 2.53 µM): 0.539; relative viability (PC-3 [JPC-3]; first compound 0.08 µM): 1.51; relative viability (PC-3 [JPC-3]; first compound 0.253 µM): 0.972; relative viability (PC-3 [JPC-3]; first compound 0.8 µM): 1.01; relative viability (PC-3 [JPC-3]; first compound 2.53 µM): 1.27; relative viability (LC-2-ad; first compound 0.08 µM): 0.251; relative viability (LC-2-ad; first compound 0.253 µM): 0.286; relative viability (LC-2-ad; first compound 0.8 µM): 0.27; relative viability (LC-2-ad; first compound 2.53 µM): 0.274; relative viability (ChaGo-K-1; first compound 0.08 µM): 0.261; relative viability (ChaGo-K-1; first compound 0.253 µM): 0.258; relative viability (ChaGo-K-1; first compound 0.8 µM): 0.275; relative viability (ChaGo-K-1; first compound 2.53 µM): 0.351; relative viability (LU99A; first compound 0.08 µM): 0.169; relative viability (LU99A; first compound 0.253 µM): 0.177; relative viability (LU99A; first compound 0.8 µM): 0.14; relative viability (LU99A; first compound 2.53 µM): 0.198; relative viability (LK-2; first compound 0.08 µM): 0.299; relative viability (LK-2; first compound 0.253 µM): 0.252; relative viability (LK-2; first compound 0.8 µM): 0.302; relative viability (LK-2; first compound 2.53 µM): 0.208; relative viability (NCI-H2342; first compound 0.08 µM): 0.769; relative viability (NCI-H2342; first compound 0.253 µM): 0.729; relative viability (NCI-H2342; first compound 0.8 µM): 0.761; relative viability (NCI-H2342; first compound 2.53 µM): 0.797; relative viability (NCI-H1944; first compound 0.08 µM): 0.769; relative viability (NCI-H1944; first compound 0.253 µM): 0.584; relative viability (NCI-H1944; first compound 0.8 µM): 0.61; relative viability (NCI-H1944; first compound 2.53 µM): 0.732; relative viability (SK-MES-1; first compound 0.08 µM): 0.953; relative viability (SK-MES-1; first compound 0.253 µM): 0.815; relative viability (SK-MES-1; first compound 0.8 µM): 0.827; relative viability (SK-MES-1; first compound 2.53 µM): 1.03; relative viability (HCC-78; first compound 0.08 µM): 0.876; relative viability (HCC-78; first compound 0.253 µM): 0.892; relative viability (HCC-78; first compound 0.8 µM): 0.877; relative viability (HCC-78; first compound 2.53 µM): 0.889; relative viability (BEN; first compound 0.08 µM): 0.781; relative viability (BEN; first compound 0.253 µM): 0.707; relative viability (BEN; first compound 0.8 µM): 0.774; relative viability (BEN; first compound 2.53 µM): 0.722; relative viability (NCI-H1355; first compound 0.08 µM): 1.04; relative viability (NCI-H1355; first compound 0.253 µM): 1.05; relative viability (NCI-H1355; first compound 0.8 µM): 1.03; relative viability (NCI-H1355; first compound 2.53 µM): 1.07; relative viability (NCI-H661; first compound 0.08 µM): 0.931; relative viability (NCI-H661; first compound 0.253 µM): 0.881; relative viability (NCI-H661; first compound 0.8 µM): 0.873; relative viability (NCI-H661; first compound 2.53 µM): 0.912; relative viability (NCI-H1666; first compound 0.08 µM): 0.842; relative viability (NCI-H1666; first compound 0.253 µM): 0.726; relative viability (NCI-H1666; first compound 0.8 µM): 0.862; relative viability (NCI-H1666; first compound 2.53 µM): 0.829; relative viability (NCI-H838; first compound 0.08 µM): 0.249; relative viability (NCI-H838; first compound 0.253 µM): 0.234; relative viability (NCI-H838; first compound 0.8 µM): 0.23; relative viability (NCI-H838; first compound 2.53 µM): 0.252; relative viability (LXF-289; first compound 0.08 µM): 0.88; relative viability (LXF-289; first compound 0.253 µM): 0.936; relative viability (LXF-289; first compound 0.8 µM): 0.854; relative viability (LXF-289; first compound 2.53 µM): 0.916; relative viability (NCI-H1975; first compound 0.08 µM): 0.308; relative viability (NCI-H1975; first compound 0.253 µM): 0.281; relative viability (NCI-H1975; first compound 0.8 µM): 0.289; relative viability (NCI-H1975; first compound 2.53 µM): 0.299; relative viability (NCI-H358; first compound 0.08 µM): 0.189; relative viability (NCI-H358; first compound 0.253 µM): 0.141; relative viability (NCI-H358; first compound 2.53 µM): 0.184
